# Values of other authors, collected in US20240368046A1, “UREA-BASED C[…] WITH AN INORGANIC ACID” (Y ara International ASA, priority 2021, published 2024).
substance,measurement,value
urea sulphate,pKa,about 1.5
